From patent US20220289753A1, “SHP2 INHIBITORS” (IRBM S.P.A., priority 2019, published 2022)

Molecular target: T1, SHP-2 enzyme (Met1-Leu525) (Homo sapiens, UniProt Q06124)
T1 construct: synthetized by Origene, Met1-Leu525, cat #TP750155; purchased Origene TP750155
T1 sequence (Q06124 1-525): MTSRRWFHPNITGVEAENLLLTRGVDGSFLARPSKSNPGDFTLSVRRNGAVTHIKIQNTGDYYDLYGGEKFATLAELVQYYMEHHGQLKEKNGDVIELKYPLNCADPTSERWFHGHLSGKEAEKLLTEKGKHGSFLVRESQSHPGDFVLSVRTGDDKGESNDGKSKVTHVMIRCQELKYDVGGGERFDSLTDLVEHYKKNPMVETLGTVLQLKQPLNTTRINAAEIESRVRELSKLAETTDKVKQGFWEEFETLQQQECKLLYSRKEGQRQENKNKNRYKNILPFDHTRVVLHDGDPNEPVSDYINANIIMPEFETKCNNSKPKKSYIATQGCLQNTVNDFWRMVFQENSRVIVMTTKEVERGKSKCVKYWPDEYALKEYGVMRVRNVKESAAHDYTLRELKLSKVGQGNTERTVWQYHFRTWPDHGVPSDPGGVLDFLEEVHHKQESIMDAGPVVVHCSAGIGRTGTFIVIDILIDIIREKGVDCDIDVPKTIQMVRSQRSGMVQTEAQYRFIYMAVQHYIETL
Test: SHP2 inhibition enzymatic assay (DiFMUP substrate, IRS1 peptide activation)
Type: biochemical
Conditions: SHP2 wt; activated by 500 nM IRS1 peptide; 75 μM DiFMUP substrate
Experimental: SHP2 Inhibition Enzymatic Assay
Assay volume of 20 μL/well was assembled in 384 well black polystyrene low-binding microplates (Greiner), using the following buffer: 60 mM HEPES pH 7.2, 75 mM NaCl, 75 mM KCl, 1 mM EDTA pH 8, 0.05% tween-20, 5 mM DTT. The SHP-2 enzyme (synthetized by Origene, Met1-Leu525, cat #TP750155) was used at a final concentration of 0.5 nM.
Briefly, DMSO serially diluted testing compounds were transferred to the bottom of the assay plate. SHP2 was then added together with the IRS1 peptide. 30 minutes post incubation, the DiFMUP substrate was added to the reaction and incubated 30 min at room temperature. […] The fluorescence was detected by a microplate reader (Envision, PerkinElmer) according to the DiFMUP excitation and emission wavelength. The lower the fluorescence the higher the SHP2 inhibition.
The percentage inhibition is fitted against the compound dilutions with a four-parameter logistic regression. The inflection point (i.e. the concentration at which half-maximal inhibition is achieved) is the IC50.

| Structure (SMILES) | IC50 [µM] |
| --- | --- |
| FC(F)(F)c1ncccc1Sc1cnc2[nH]c(N3CCC4(CCN4)CC3)nc2n1 [Example 5, 2-(1,7-diazaspiro[3.5]nonan-7-yl)-5-((2-(trifluoromethyl)pyridin-3-yl)thio)-1H-imidazo[4,5-b]pyrazine] | 0.5 to 3 |
| FC(F)(F)c1ncccc1Sc1cnc2[nH]c(NCc3cccnc3N3CCOCC3)nc2n1 [Example 112, N-((2-morpholinopyridin-3-yl)methyl)-5-((2-(trifluoromethyl)pyridin-3-yl)thio)-1H-imidazo[4,5-b]pyrazin-2-amine] | > 3 |
| CC1(N)CCN(c2nc3nc(Sc4cccc(F)c4F)cnc3[nH]2)CC1 [Example 21, 1-(5-((2,3-difluorophenyl)thio)-1H-imidazo[4,5-b]pyrazin-2-yl)-4-methylpiperidin-4-amine] | 0.5 to 3 |
| N[C@@H]1c2ccccc2CC12CCN(c1nc3nc(Sc4cccnc4C(F)(F)F)c(Cl)nc3[nH]1)CC2 [Example 118, (S)-1′-(6-chloro-5-((2-(trifluoromethyl)pyridin-3-yl)thio)-1H-imidazo[4,5-b]pyrazin-2-yl)-1,3-dihydrospiro[indene-2,4′-piperidin]-1-amine] | < 0.5 |
| NC1CCCN(c2nc3nc(Sc4cccnc4C(F)(F)F)cnc3[nH]2)C1 (centres unmarked) [Example 33, 1-(5-((2-(trifluoromethyl)pyridin-3-yl)thio)-1H-imidazo[4,5-b]pyrazin-2-yl)piperidin-3-amine] | < 0.5 |
| CN1CCOc2ccc(Sc3cnc4[nH]c(N5CCC(C)(N)CC5)nc4n3)cc21 [Example 67, 4-methyl-1-(5-((4-methyl-3,4-dihydro-2H-benzo[b][1,4]oxazin-6-yl)thio)-1H-imidazo[4,5-b]pyrazin-2-yl)piperidin-4-amine] | > 3 |
| Cc1ccsc1Sc1cnc2[nH]c(N3CCC(C)(N)CC3)nc2n1 [Example 68, 4-methyl-1-(5-((3-methylthiophen-2-yl)thio)-1H-imidazo[4,5-b]pyrazin-2-yl)piperidin-4-amine] | > 3 |
| CC(N)CCNc1nc2nc(Sc3cccnc3C(F)(F)F)cnc2[nH]1 (centres unmarked) [Example 54, N1-(5-((2-(trifluoromethyl)pyridin-3-yl)thio)-1H-imidazo[4,5-b]pyrazin-2-yl)butane-1,3-diamine] | 0.5 to 3 |
| CC1(N)CCN(c2nc3nc(Sc4ccn5nccc5n4)cnc3[nH]2)CC1 [Example 65, 4-methyl-1-(5-(pyrazolo[1,5-a]pyrimidin-5-ylthio)-1H-imidazo[4,5-b]pyrazin-2-yl)piperidin-4-amine] | > 3 |
| Cc1cc(Cl)ccc1Sc1cnc2[nH]c(N3CCC(C)(N)CC3)nc2n1 [Example 38, 1-(5-((4-chloro-2-methylphenyl)thio)-1H-imidazo[4,5-b]pyrazin-2-yl)-4-methylpiperidin-4-amine] | < 0.5 |
| Cn1c(N2CCC(C)(N)CC2)nc2ncc(Sc3cccnc3C(F)(F)F)nc21 [Example 4, 4-methyl-1-(1-methyl-6-((2-(trifluoromethyl)pyridin-3-yl)thio)-1H-imidazo[4,5-b]pyrazin-2-yl)piperidin-4-amine] | 0.5 to 3 |
| Nc1nccc(Sc2cnc3[nH]c(N4CCC5(CC4)Oc4ccccc4[C@H]5N)nc3n2)c1Cl [Example 159, (R)-1′-(5-((2-amino-3-chloropyridin-4-yl)thio)-1H-imidazo[4,5-b]pyrazin-2-yl)-3H-spiro[benzofuran-2,4′-piperidin]-3-amine] | < 0.5 |
| CCn1c(N2CCC(C)(N)CC2)nc2nc(Sc3cccnc3C(F)(F)F)cnc21 [Example 63, 1-(1-ethyl-5-((2-(trifluoromethyl)pyridin-3-yl)thio)-1H-imidazo[4,5-b]pyrazin-2-yl)-4-methylpiperidin-4-amine] | 0.5 to 3 |
| FC(F)(F)c1ncccc1Sc1cnc2[nH]c(NC3CC4(CNC4)C3)nc2n1 [Example 84, N-(2-azaspiro[3.3]heptan-6-yl)-5-((2-(trifluoromethyl)pyridin-3-yl)thio)-1H-imidazo[4,5-b]pyrazin-2-amine] | 0.5 to 3 |
| CC1(N)CCN(c2nc3nc(Sc4cccc(CC(=O)O)c4)cnc3[nH]2)CC1 [Example 103, 2-(3-((2-(4-amino-4-methylpiperidin-1-yl)-1H-imidazo[4,5-b]pyrazin-5-yl)thio)phenyl)acetic acid] | < 0.5 |
| NCC1CN(c2nc3nc(Sc4cccnc4C(F)(F)F)cnc3[nH]2)C1 [Example 55, (1-(5-((2-(trifluoromethyl)pyridin-3-yl)thio)-1H-imidazo[4,5-b]pyrazin-2-yl)azetidin-3-yl)methanamine] | 0.5 to 3 |

| Structure (SMILES) | IC50 [µM] |
| --- | --- |
| CC1(N)CCN(c2nc3ncc(Oc4cccc(Cl)c4Cl)nc3[nH]2)CC1 [Example 122, 1-(5-(2,3-dichlorophenoxy)-1H-imidazo[4,5-b]pyrazin-2-yl)-4-methylpiperidin-4-amine] | 0.5 to 3 |
| FC(F)(F)c1ncccc1Sc1cnc2[nH]c(Nc3ccc4n[nH]cc4c3)nc2n1 [Example 50, N-(2H-indazol-5-yl)-5-((2-(trifluoromethyl)pyridin-3-yl)thio)-1H-imidazo[4,5-b]pyrazin-2-amine] | 0.5 to 3 |
| CC1(N)CCN(c2nc3nc(Sc4cccc5cnccc45)cnc3[nH]2)CC1 [Example 70, 1-(5-(isoquinolin-5-ylthio)-1H-imidazo[4,5-b]pyrazin-2-yl)-4-methylpiperidin-4-amine] | < 0.5 |
| OC1CCN(c2nc3nc(Sc4cccnc4C(F)(F)F)cnc3[nH]2)CC1 [Example 41, 1-(5-((2-(trifluoromethyl)pyridin-3-yl)thio)-1H-imidazo[4,5-b]pyrazin-2-yl)piperidin-4-ol] | > 3 |
| CC1(N)CCN(c2nc3nc(Sc4cccc(-c5ccccc5)c4)cnc3[nH]2)CC1 [Example 58, 1-(5-([1,1′-biphenyl]-3-ylthio)-1H-imidazo[4,5-b]pyrazin-2-yl)-4-methylpiperidin-4-amine] | 0.5 to 3 |
| CC1(N)CCN(c2nc3nc(Sc4cccc5[nH]cnc45)cnc3[nH]2)CC1 [Example 116] | 0.5 to 3 |
| NC1CCCN(c2nc3nc(Sc4cccnc4C(F)(F)F)cnc3[nH]2)CC1 (centres unmarked) [Example 85, 1-(5-((2-(trifluoromethyl)pyridin-3-yl)thio)-1H-imidazo[4,5-b]pyrazin-2-yl)azepan-4-amine] | 0.5 to 3 |
| FC(F)(F)c1ncccc1Sc1cnc2[nH]c(NCCCN3CCOCC3)nc2n1 [Example 123, N-(3-morpholinopropyl)-5-((2-(trifluoromethyl)pyridin-3-yl)thio)-1H-imidazo[4,5-b]pyrazin-2-amine] | > 3 |
| CC1(N)CCN(c2nc3ncc(Sc4cccnc4)nc3[nH]2)CC1 [Example 12, 4-methyl-1-(6-(pyridin-3-ylthio)-1H-imidazo[4,5-b]pyrazin-2-yl)piperidin-4-amine] | 0.5 to 3 |
| CC(C)(CNc1nc2nc(Sc3cccnc3C(F)(F)F)cnc2[nH]1)Cc1cccnc1 [Example 113, N-(2,2-dimethyl-3-(pyridin-3-yl)propyl)-5-((2-(trifluoromethyl)pyridin-3-yl)thio)-1H-imidazo[4,5-b]pyrazin-2-amine] | > 3 |
| CC1(N)CCN(c2nc3nc(Sc4ccc(C(=O)O)cc4)cnc3[nH]2)CC1 [Example 95, 4-((2-(4-amino-4-methylpiperidin-1-yl)-1H-imidazo[4,5-b]pyrazin-5-yl)thio)benzoic acid] | < 0.5 |
| CC1(N)CCN(c2nc3nc(Sc4ccncc4)cnc3[nH]2)CC1 [Example 80, 4-methyl-1-(5-(pyridin-4-ylthio)-1H-imidazo[4,5-b]pyrazin-2-yl)piperidin-4-amine] | 0.5 to 3 |
| O=C1NCC2(CCCN(c3nc4nc(Sc5cccnc5C(F)(F)F)cnc4[nH]3)C2)O1 (centres unmarked) [Example 83, 7-(5-((2-(trifluoromethyl)pyridin-3-yl)thio)-1H-imidazo[4,5-b]pyrazin-2-yl)-1-oxa-3,7-diazaspiro[4.5]decan-2-one] | > 3 |
| NCC1CCN(c2nc3nc(Sc4cccnc4C(F)(F)F)cnc3[nH]2)CC1 [Example 8, (1-(5-((2-(trifluoromethyl)pyridin-3-yl)thio)-1H-imidazo[4,5-b]pyrazin-2-yl)piperidin-4-yl)methanamine] | 0.5 to 3 |
| CC1(N)CCN(c2nc3nc(Sc4ccc5ccccc5c4)cnc3[nH]2)CC1 [Example 81, 4-methyl-1-(5-(naphthalen-2-ylthio)-1H-imidazo[4,5-b]pyrazin-2-yl)piperidin-4-amine] | 0.5 to 3 |
| Nc1cnccc1Sc1cnc2[nH]c(N3CCC4(CC3)Cc3ccccc3[C@H]4N)nc2n1 [Example 210, (S)-1′-(5-((3-aminopyridin-4-yl)thio)-1H-imidazo[4,5-b]pyrazin-2-yl)-1,3-dihydrospiro[indene-2,4′-piperidin]-1-amine] | < 0.5 |
